Laboratory results from patent US20120018333A1, “Reducing Side Effects of Tramadol” (priority 2007, published 2012).
Structures can show the parent of a compound that is named as a salt.

Tests used:
[1] = used for analgesia; cited from earlier work
[2] = volunteer study of adverse events: tramadol HCl alone or combined with sildenafil citrate and naltrexone HCl before sexual intercourse
Protocol: In particular, three healthy, heterosexual male subjects (mean age 57) signed informed consents and volunteered to self administer oral tramadol HCl 100 mg 2 to 5 hours before sexual intercourse and to record any adverse events. At other times, these volunteers self administered oral tramadol HCl 25 to 100 mg combined with oral sildenafil citrate 50 mg or oral sildenafil citrate 50 mg plus oral naltrexone HCl 2.5 to 10 mg 2 to 5 hours before sexual intercourse and recorded any adverse effects.

[3] = placebo controlled, dose-ranging clinical study of oral tramadol HCl in men with severe premature ejaculation; assay type: in vivo, human; details: percentages based on total drug exposures for the three doses, 2 to 5 hours before intercourse
Protocol: See U.S. Pat. No. 6,974,839, Safarinejad et al., J. Clin. Psychopharmacol., 26(1):27-31 (February 2006) and Salem et al., J. Sex. Med., 5(1):188-193 (January 2008). A placebo controlled, dose-ranging clinical study that enrolled more than 60 male volunteers with severe premature ejaculation who self administered three different doses of oral tramadol HCl 2 to 5 hours before sexual intercourse was performed on behalf of DMI BioSciences, Inc., Aurora, Colo. […] However, the patient reported outcome responses in this study also reported the following previously unreported mild or moderate adverse events (percentages based on total drug exposures for the three doses): erectile dysfunction (8%-14%), anorgasmia (3%-7%), and penile hypoesthesia (4%-5%). Less common unexpected, drug-related mild or moderate adverse events were decreased libido (<1%-2%) and decreased orgasmic sensation (0-<1%). These mild or moderate adverse events related to sexual activity were generally dose-dependent and occurred more frequently in men 40 years of age and older.

[4] = tramadol HCl 100 mg alone, % of total drug exposures, three volunteers

COc1cccc(C2(O)CCCCC2CN(C)C)c1 (stereo not shown) [Tramadol, 2-[(dimethylamino)methyl]-1-(3-methoxyphenyl)-cyclohexanol]
incidence of reported side effects (dizziness, nausea, constipation, headache, somnolence, vomiting, pruritis, CNS stimulation, asthenia, sweating, dyspepsia, dry mouth, diarrhea) [1]: ≥ 5%

O=C1CC[C@@]2(O)[C@H]3Cc4ccc(O)c5c4[C@@]2(CCN3CC2CC2)[C@H]1O5 [naltrexone]
effectiveness of tramadol in delaying ejaculation ([2]; naltrexone 2.5 mg to 10 mg given with tramadol): did not reduce

COc1cccc([C@]2(O)CCCC[C@H]2CN(C)C)c1 (racemic) [tramadol HCl, (±) cis-2-[(dimethylamino)methyl]-1-(3-methoxyphenyl)-cyclohexanol hydrochloride]
serious adverse events ([2]; oral, 2 to 5 hours before sexual intercourse): No serious adverse events occurred
anorgasmia [2, 4]: 29%
constipation [2, 4]: 71%
decreased libido [2, 4]: 43%
decreased orgasmic sensation [2, 4]: 57%
dizziness [2, 4]: 14%
dry mouth [2, 4]: 57%
erectile dysfunction [2, 4]: 43%
fatigue [2, 4]: 14%
insomnia [2, 4]: 71%
itching [2, 4]: 57%
nasal congestion [2, 4]: 57%
nausea [2, 4]: 14%
penile hypoesthesia [2, 4]: 43%
restlessness [2, 4]: 29%
mild or moderate adverse events, 100 mg dose compared with 25 mg ([2]; tramadol HCl alone, oral): substantially more
anorgasmia (mild or moderate adverse event) [3]: 3%-7%
decreased libido (mild or moderate adverse event) [3]: <1%-2%
erectile dysfunction (mild or moderate adverse event) [3]: 8%-14%
penile hypoesthesia (mild or moderate adverse event) [3]: 4%-5%
